We go through 21 molecules from ChEMBL document CHEMBL4765475, “Tuning the Biological Activity of RGD Peptides with Halotryptophans†” (J Med Chem, 2021).

In one experiment the target is Integrin alpha-5/beta-1 (Homo sapiens, UniProt P05556+P08648). The experiment in a line: Binding affinity to human integrin alpha5beta1 incubated for 1 hr by ELISA based solid phase integrin binding assay. It is filed as protein-complex assay. A general note: An ELISA detects its analyte on a solid surface through an enzyme-linked reagent.
Experiment [1] is described as follows: Selectivity index, ratio of IC50 for binding affinity to human integrin alpha5beta1 to IC50 for binding affinity to human integrin alphaVbeta3.
Experiment [2] addresses T1, Integrin alpha-V/beta-3 (Homo sapiens, UniProt P05106+P06756). The experiment in a line: Binding affinity to human integrin alphaVbeta3 incubated for 1 hr by ELISA based solid phase integrin binding assay. The experiment is classed as protein-complex assay.
Target sequence in this assay (P05106 27-788 limits assumed): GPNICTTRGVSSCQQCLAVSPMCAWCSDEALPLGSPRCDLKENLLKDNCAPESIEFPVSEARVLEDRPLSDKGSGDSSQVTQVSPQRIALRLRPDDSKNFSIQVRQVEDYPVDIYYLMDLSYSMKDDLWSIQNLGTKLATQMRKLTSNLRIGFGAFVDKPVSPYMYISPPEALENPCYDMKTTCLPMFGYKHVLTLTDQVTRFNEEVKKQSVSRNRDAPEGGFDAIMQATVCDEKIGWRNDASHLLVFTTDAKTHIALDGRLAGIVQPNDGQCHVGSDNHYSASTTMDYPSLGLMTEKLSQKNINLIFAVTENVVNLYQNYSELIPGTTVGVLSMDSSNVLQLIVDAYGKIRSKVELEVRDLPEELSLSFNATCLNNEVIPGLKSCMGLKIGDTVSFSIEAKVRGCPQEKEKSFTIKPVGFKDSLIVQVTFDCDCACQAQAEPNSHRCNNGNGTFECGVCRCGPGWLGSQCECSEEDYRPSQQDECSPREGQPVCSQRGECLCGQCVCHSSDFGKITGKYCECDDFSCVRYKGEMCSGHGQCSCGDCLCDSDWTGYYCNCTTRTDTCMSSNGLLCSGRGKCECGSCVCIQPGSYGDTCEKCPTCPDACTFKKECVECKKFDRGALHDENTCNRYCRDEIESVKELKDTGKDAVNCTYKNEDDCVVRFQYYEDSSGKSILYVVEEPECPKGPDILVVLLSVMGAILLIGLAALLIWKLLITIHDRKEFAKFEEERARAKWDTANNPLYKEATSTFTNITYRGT
Target sequence in this assay (P06756 31-889 limits assumed): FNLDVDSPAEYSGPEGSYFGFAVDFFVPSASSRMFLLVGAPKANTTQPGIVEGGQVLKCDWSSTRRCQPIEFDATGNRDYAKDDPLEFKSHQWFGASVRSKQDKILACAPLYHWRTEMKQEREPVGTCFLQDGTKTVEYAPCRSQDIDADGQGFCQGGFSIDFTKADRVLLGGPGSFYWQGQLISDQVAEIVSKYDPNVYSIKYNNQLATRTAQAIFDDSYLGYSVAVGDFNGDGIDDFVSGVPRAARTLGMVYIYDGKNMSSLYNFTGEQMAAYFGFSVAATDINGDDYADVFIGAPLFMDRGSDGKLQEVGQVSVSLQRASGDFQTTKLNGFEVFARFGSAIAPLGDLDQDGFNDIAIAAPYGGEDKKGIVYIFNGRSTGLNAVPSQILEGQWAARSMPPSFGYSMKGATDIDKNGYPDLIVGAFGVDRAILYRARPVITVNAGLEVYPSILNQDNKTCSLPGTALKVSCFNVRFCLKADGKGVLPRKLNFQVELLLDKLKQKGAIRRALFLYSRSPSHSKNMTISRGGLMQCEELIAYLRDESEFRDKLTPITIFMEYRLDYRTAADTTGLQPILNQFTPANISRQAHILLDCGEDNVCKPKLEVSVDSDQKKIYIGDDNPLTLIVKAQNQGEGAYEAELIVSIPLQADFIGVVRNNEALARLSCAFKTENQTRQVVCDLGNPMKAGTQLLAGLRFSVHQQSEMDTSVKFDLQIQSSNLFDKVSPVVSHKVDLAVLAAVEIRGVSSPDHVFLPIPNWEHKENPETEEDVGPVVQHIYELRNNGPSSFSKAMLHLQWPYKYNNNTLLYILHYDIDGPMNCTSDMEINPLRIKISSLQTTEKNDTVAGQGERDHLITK
Target sequence in this assay (P06756 891-1048 limits assumed): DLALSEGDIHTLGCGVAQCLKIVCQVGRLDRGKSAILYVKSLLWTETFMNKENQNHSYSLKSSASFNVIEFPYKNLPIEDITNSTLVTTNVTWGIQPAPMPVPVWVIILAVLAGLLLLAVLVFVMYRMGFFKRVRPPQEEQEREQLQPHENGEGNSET
For the next experiment, the system named is KB. The experiment in a line: Cytotoxicity in human KB cells. The experiment is classed as functional, cell-based. As to conditions: for IC50: Homo sapiens, KB.
For the next experiment, the target named is Integrin alpha-V/beta-8 (Homo sapiens, UniProt P06756+P26012). The experiment in a line: Binding affinity to human integrin alphaVbeta8 incubated for 1 hr by ELISA based solid phase integrin binding assay. It is filed as protein-complex assay.
Sequence of Integrin alpha-V/beta-8 (P06756 31-889 limits assumed): as the sequence (P06756 31-889 limits assumed) above
Sequence of Integrin alpha-V/beta-8 (P06756 891-1048 limits assumed): as the sequence (P06756 891-1048 limits assumed) above
Sequence of Integrin alpha-V/beta-8 (P26012 43-769 limits assumed): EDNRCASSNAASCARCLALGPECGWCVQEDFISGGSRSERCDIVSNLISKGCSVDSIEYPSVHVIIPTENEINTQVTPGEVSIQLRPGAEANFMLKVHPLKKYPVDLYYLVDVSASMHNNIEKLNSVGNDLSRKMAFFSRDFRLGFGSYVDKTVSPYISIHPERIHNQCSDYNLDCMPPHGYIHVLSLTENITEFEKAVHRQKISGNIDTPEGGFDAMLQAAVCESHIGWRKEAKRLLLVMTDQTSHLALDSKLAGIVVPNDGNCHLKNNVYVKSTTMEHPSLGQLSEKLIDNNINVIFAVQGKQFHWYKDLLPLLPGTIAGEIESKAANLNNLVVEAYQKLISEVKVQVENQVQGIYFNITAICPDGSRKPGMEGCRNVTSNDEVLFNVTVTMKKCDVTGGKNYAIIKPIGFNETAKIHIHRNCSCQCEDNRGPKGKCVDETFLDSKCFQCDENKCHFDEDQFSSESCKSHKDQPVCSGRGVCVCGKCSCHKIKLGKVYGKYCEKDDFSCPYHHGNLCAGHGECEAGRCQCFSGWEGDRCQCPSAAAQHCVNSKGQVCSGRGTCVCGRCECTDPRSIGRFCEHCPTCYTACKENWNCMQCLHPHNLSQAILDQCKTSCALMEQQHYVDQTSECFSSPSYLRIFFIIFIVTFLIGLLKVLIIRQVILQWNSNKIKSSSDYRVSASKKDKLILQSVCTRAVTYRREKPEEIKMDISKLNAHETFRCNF
In a further experiment the target is Integrin alpha-V/beta-6 (Homo sapiens, UniProt P06756+P18564). The experiment in a line: Binding affinity to human integrin alphaVbeta6 incubated for 1 hr by ELISA based solid phase integrin binding assay. The experiment is classed as protein-complex assay.
Sequence of Integrin alpha-V/beta-6 (P06756 31-889 limits assumed): as the sequence (P06756 31-889 limits assumed) above
Sequence of Integrin alpha-V/beta-6 (P06756 891-1048 limits assumed): as the sequence (P06756 891-1048 limits assumed) above
Sequence of Integrin alpha-V/beta-6 (P18564 22-788 limits assumed): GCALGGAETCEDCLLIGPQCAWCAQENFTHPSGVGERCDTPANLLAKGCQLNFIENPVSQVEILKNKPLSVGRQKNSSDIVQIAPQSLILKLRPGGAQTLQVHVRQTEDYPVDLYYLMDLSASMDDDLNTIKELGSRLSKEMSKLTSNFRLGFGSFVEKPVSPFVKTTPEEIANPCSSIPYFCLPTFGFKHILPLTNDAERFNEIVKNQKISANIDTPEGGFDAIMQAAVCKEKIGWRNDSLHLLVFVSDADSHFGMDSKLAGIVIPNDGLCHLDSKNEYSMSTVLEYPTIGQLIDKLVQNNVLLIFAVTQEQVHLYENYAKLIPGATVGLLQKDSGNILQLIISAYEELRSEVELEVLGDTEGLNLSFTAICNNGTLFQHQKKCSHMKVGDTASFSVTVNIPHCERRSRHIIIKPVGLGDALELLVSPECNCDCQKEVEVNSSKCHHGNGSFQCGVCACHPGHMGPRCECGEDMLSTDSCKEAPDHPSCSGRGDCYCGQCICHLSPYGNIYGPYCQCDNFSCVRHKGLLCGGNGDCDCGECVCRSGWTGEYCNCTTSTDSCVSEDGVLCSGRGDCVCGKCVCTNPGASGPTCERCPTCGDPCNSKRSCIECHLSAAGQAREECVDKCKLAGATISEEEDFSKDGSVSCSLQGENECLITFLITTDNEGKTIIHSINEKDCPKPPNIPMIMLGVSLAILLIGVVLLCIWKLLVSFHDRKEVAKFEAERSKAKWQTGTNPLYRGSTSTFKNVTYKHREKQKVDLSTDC
Experiment [3] deals with Integrin alpha-IIb/beta-3 (Homo sapiens, UniProt P05106+P08514). The experiment in a line: Binding affinity to human integrin alpha2bbeta3 incubated for 1 hr by ELISA based solid phase integrin binding assay. It is filed as protein complex.
Sequence of Integrin alpha-IIb/beta-3 (P05106 27-788 limits assumed): as the sequence (P05106 27-788 limits assumed) above
Sequence of Integrin alpha-IIb/beta-3 (P08514 32-887 limits assumed): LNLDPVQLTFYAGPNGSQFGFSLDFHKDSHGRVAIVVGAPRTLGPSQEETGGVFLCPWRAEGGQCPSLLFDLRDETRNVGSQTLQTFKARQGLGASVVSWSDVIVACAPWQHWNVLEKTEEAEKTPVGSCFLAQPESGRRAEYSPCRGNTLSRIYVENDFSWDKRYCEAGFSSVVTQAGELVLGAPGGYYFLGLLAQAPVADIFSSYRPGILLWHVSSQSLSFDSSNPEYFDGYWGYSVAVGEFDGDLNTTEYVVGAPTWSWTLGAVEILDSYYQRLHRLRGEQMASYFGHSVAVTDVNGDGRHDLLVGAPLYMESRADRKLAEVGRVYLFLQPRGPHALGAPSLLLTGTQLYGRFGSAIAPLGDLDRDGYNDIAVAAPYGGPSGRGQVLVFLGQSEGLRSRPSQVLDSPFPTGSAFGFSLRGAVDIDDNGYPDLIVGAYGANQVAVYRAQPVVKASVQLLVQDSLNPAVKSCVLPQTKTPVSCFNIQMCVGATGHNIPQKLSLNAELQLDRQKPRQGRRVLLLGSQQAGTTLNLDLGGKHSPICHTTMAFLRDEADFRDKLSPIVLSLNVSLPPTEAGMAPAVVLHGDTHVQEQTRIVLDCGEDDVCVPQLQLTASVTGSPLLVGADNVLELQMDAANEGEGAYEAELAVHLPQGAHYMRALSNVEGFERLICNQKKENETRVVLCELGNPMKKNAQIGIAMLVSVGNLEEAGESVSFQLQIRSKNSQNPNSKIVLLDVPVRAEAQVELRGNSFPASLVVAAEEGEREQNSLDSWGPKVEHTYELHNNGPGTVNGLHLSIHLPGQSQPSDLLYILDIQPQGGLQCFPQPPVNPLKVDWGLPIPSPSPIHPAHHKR
Sequence of Integrin alpha-IIb/beta-3 (P08514 891-1039 limits assumed): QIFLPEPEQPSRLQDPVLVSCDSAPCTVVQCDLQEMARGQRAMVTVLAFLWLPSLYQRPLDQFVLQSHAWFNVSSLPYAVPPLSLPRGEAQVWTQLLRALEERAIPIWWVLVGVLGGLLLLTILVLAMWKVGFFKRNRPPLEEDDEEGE
Experiment [4] deals with T1, Integrin alpha-V/beta-3. The experiment in a line: Binding affinity to integrin alphaVbeta3 expressed in human M21 cells at 250 uM incubated for 30 mins by confocal microscopy. It is filed as cell-based.

Active and inactive are the calls of the source. The rule behind the calls is not given here.

Usually IC50 stands for the point on the concentration scale where inhibition reaches its midpoint. With `CC(C)[C@@H]1NC(=O)[C@@H](Cc2c[nH]c3c(Br)cccc23)NC(=O)[C@H](CC(=O)O)NC(=O)CNC(=O)[C@H](CCCNC(=N)N)NC1=O`, the figures for the IC50 on Integrin alpha-5/beta-1 and at Integrin alpha-V/beta-3 [2] were 74.3 nM and 0.62 nM, respectively. In experiment [1], the Ratio IC50 turned out to be 120.

`O=[N+]([O-])/C=C1\NCCN1Cc1ccc(Br)nc1`: in the experiment on KB, the LC90 is reported as 1.6 ppm.

Consider `CC(C)[C@H]1C(=O)N[C@@H](CCCNC(=N)N)C(=O)NCC(=O)N[C@@H](CC(=O)O)C(=O)N[C@H](Cc2c[nH]c3c(Br)cccc23)C(=O)N1C`, for which the IC50 on Integrin alpha-5/beta-1 turned out to be 10.2 nM; at Integrin alpha-V/beta-3 [2], 1.37 nM. In experiment [1], the Ratio IC50 came to 7.4.

Regarding `O=[N+]([O-])/C=C1\NCCN1Cc1cccnc1`, the LC90 in the experiment on KB is on record as 8 ppm.

Take `CC(C)[C@@H]1NC(=O)[C@@H](Cc2c[nH]c3c(I)cccc23)NC(=O)[C@H](CC(=O)O)NC(=O)CNC(=O)[C@H](CCCNC(=N)N)NC1=O`: the IC50 on Integrin alpha-5/beta-1 turned out to be 49.2 nM; at Integrin alpha-V/beta-3 [2] it was 0.43 nM. Besides, the Ratio IC50 in experiment [1] was 114.

In the case of `CC(C)[C@@H]1NC(=O)[C@@H](Cc2c[nH]c3c(-c4ccc(C(=O)O)cc4)cccc23)NC(=O)[C@H](CC(=O)O)NC(=O)CNC(=O)[C@H](CCCNC(=N)N)NC1=O`, the 50% inhibitory concentration (IC50) was 39.2 nM at Integrin alpha-V/beta-8; 54 nM on Integrin alpha-V/beta-6; greater than 10000 nM in experiment [3]; 22 nM on Integrin alpha-5/beta-1; 0.52 nM on Integrin alpha-V/beta-3 [2]. Further, in experiment [1], the Ratio IC50 came to 42.

For the molecule `CC(C)[C@@H]1NC(=O)[C@@H](Cc2c[nH]c3c(F)cccc23)NC(=O)[C@H](CC(=O)O)NC(=O)CNC(=O)[C@H](CCCNC(=N)N)NC1=O`, the half-maximal inhibitory concentration (IC50) on Integrin alpha-5/beta-1 was 58.3 nM; on Integrin alpha-V/beta-3 [2] it was 0.35 nM. In addition, the Ratio IC50 in experiment [1] was 167.

Consider `CC(C)[C@@H]1NC(=O)[C@@H](Cc2c[nH]c3c(-c4cccc(N)c4)cccc23)NC(=O)[C@H](CC(=O)O)NC(=O)CNC(=O)[C@H](CCCNC(=N)N)NC1=O`, for which the IC50 on Integrin alpha-V/beta-8 was 220 nM; at Integrin alpha-V/beta-6 it was 36 nM; in experiment [3], greater than 10000 nM; at Integrin alpha-5/beta-1, 610 nM; at Integrin alpha-V/beta-3 [2], 0.52 nM. In experiment [1], the Ratio IC50 was found to be 1170.

Take `CC(C)[C@@H]1NC(=O)[C@@H](Cc2c[nH]c3ccccc23)NC(=O)[C@H](CC(=O)O)NC(=O)CNC(=O)[C@H](CCCNC(=N)N)NC1=O`: the IC50 at Integrin alpha-5/beta-1 turned out to be 9.9 nM; at Integrin alpha-V/beta-3 [2] it was 1.15 nM. The Ratio IC50 in experiment [1] amounted to 8.6.

For `COc1ccc(C[C@H]2NC(=O)/C=C/C[C@@H]([C@H](C)[C@@H]3O[C@H]3c3ccccc3)OC(=O)[C@H](CC(C)C)OC(=O)C(C)(C)CNC2=O)cc1`, the midpoint of inhibition with KB, the IC50, lay at 0.073 nM.

With `CC(C)[C@@H]1NC(=O)[C@@H](Cc2c[nH]c3cc(Br)ccc23)NC(=O)[C@H](CC(=O)O)NC(=O)CNC(=O)[C@H](CCCNC(=N)N)NC1=O`, the figures for the IC50 at Integrin alpha-5/beta-1 and at Integrin alpha-V/beta-3 [2] were 43.3 nM and 0.53 nM, respectively. The Ratio IC50 in experiment [1] turned out to be 82.

In the experiment with KB, `O=[N+]([O-])/C=C1\NCCN1Cc1ccc(F)nc1` displayed an LC90 of 0.32 ppm.

For the molecule `CC(C)[C@@H]1NC(=O)[C@@H](Cc2c[nH]c3c(-c4c5ccccc5cc5ccccc45)cccc23)NC(=O)[C@H](CC(=O)O)NC(=O)CNC(=O)[C@H](CCCNC(=N)N)NC1=O`, the IC50 on Integrin alpha-V/beta-8 was 193 nM; at Integrin alpha-V/beta-6, 32 nM; in experiment [3] it was greater than 10000 nM; at Integrin alpha-5/beta-1, 471 nM; at Integrin alpha-V/beta-3 [2] it was 0.59 nM. Further, in experiment [1], the Ratio IC50 came out at 798.

In the experiment on KB, `COc1ccc(C[C@H]2NC(=O)/C=C/C[C@@H]([C@H](C)[C@@H]3O[C@H]3c3ccccc3)OC(=O)[C@H](CC(C)C)OC(=O)C(C)(C)CNC2=O)cc1Cl` registered an IC50 of 0.009 nM.

Consider `CC(C)[C@@H]1NC(=O)[C@@H](Cc2c[nH]c3cc(Cl)ccc23)NC(=O)[C@H](CC(=O)O)NC(=O)CNC(=O)[C@H](CCCNC(=N)N)NC1=O`, for which the IC50 at Integrin alpha-5/beta-1 was found to be 39.1 nM; at Integrin alpha-V/beta-3 [2], 0.24 nM. Moreover, the Ratio IC50 in experiment [1] was 163.

Consider `COc1ccc(-c2cccc3c(C[C@H]4NC(=O)[C@H](CC(=O)O)NC(=O)CNC(=O)[C@H](CCCNC(=N)N)NC(=O)[C@H](C(C)C)NC4=O)c[nH]c23)cc1`, for which the half-maximal inhibitory concentration (IC50) at Integrin alpha-V/beta-8 was 76.5 nM; on Integrin alpha-V/beta-6 it was 50 nM; in experiment [3], greater than 10000 nM; at Integrin alpha-5/beta-1, 66 nM; at Integrin alpha-V/beta-3 [2] it was 0.74 nM. In addition, the Ratio IC50 in experiment [1] came to 89.

On to `CC(C)[C@H]1NC(=O)[C@H](Cc2c[nH]c3c(Br)cccc23)NC(=O)[C@H](CC(=O)O)NC(=O)CNC(=O)[C@H](CCCNC(=N)N)NC1=O`, for which the IC50 at Integrin alpha-5/beta-1 was found to be 472 nM; on Integrin alpha-V/beta-3 [2], 0.53 nM. Besides, in experiment [1], the Ratio IC50 is 891.

As for `CC(C)[C@@H]1NC(=O)[C@@H](Cc2c[nH]c3c(-c4ccc5ccc6cccc7ccc4c5c67)cccc23)NC(=O)[C@H](CC(=O)O)NC(=O)CNC(=O)[C@H](CCCNC(=N)N)NC1=O`, the outcome on Integrin alpha-V/beta-3 [4] was Active. In addition, the figures for the IC50 (at Integrin alpha-V/beta-8; at Integrin alpha-V/beta-6; in experiment [3]) were 1010 nM, 299 nM and greater than 10000 nM, respectively. Further, the Ratio IC50 in experiment [1] is 407.

In the experiment with KB, `O=[N+]([O-])/C=C1\NCCN1Cc1ccc(Cl)nc1` had an LC90 of 0.32 ppm.

On to `CC(C)[C@@H]1C(=O)N[C@@H](CCCNC(=N)N)C(=O)NCC(=O)N[C@@H](CC(=O)O)C(=O)N[C@@H](Cc2c[nH]c3c(Br)cccc23)C(=O)N1C`, for which the values for the IC50 at Integrin alpha-5/beta-1 and at Integrin alpha-V/beta-3 [2] were greater than 10000 nM and 311 nM, respectively.

As for `CC(C)[C@@H]1NC(=O)[C@@H](Cc2c[nH]c3c(Cl)cccc23)NC(=O)[C@H](CC(=O)O)NC(=O)CNC(=O)[C@H](CCCNC(=N)N)NC1=O`, the IC50 at Integrin alpha-5/beta-1 is 91.3 nM; on Integrin alpha-V/beta-3 [2], 0.34 nM. Also, the Ratio IC50 in experiment [1] stood at 269.
